Measured values reported in patent US8232295B2, “Treating vascular events with statins by inhibiting PAR-1 and PAR-4” (Heartdrug Research, L.L.C., priority 2004, dated 2012).

What was measured:
[1] = test system: platelet PAR-1/PAR-4 receptors (intact epitope); assay: Whole blood flow cytometry with SPAN12 monoclonal antibody (nonactive, intact epitope) in statin-treated patients with coronary artery disease; type: in vivo, human; conditions: n = 10
Text: (§1) The study was designed as a prospective, single blinded, placebo controlled trial of 6 major statins currently available in the US. The study was approved by local institutional review boards. Written informed consent was obtained from all patients, who were informed of the strict compliance rules, and compensated for outpatient visits, and blood draws.
(§2) Blood samples were obtained with a 19-gauge needle by direct venipuncture and drawn into two 7-ml vacutainer tubes at room temperature containing 3.8% trisodium citrate. The vacutainer tube was filled to capacity and gently inverted 3 to 5 times to ensure complete mixing of the anticoagulant. The first 4-5 ml of blood were used for lipid profile analysis, or discharged. All samples were labeled with coded number and analyzed by blinded technicians. Platelet studies were performed at baseline as well as at Week 4, and Week 6.
(§3) The blood-citrate mixture (50 μl) was diluted with 450 μl Tris buffered saline (TBS) (10 mmol/l Tris, 0.15 mol/l sodium chloride) and mixed by inverting an Eppendorf tube gently two times. The appropriate antibody was then added (5 μl) and incubated at 37° C. for 30 minutes, after incubation, 400 μl of 2% buffered paraformaldehyde was added for fixation. The samples were analyzed on the FACScan flow cytometer (Becton Dickinson, San Diego, Calif.) calibrated to measure fluorescent light scatter. All parameters were collected using four-decade logarithmic amplification. The data were collected in list mode files and then analyzed. The surface expression of platelet receptors was determined by flow cytometry using the following monoclonal antibodies: cleaved (WEDE15), and intact (SPAN12) platelet thrombin PAR-1/PAR-4 receptors (Beckman Coulter, Brea, Calif.), and they were expressed as log mean fluorescence intensity.
(§4) The significance of differences between treatments arms was calculated by c2 and Fisher's exact tests for discrete variables, and Wilcoxon rank-sum test for continuous variables. The significance of differences between individual flow cytometric histograms was calculated using the Smirnov-Kolgomorov test incorporated in the CELLQuest' (San Diego, Calif.) software. Statistical analyses were performed using SPSS/E11.5 (SPSS, Inc., Chicago, Ill.). To control for any baseline differences analysis of variance was used. All p values are 2 sided.

[2] = test system: platelet PAR-1/PAR-4 receptors (cleaved epitope); assay: Whole blood flow cytometry with WEDE15 monoclonal antibody (cleaved epitope) in statin-treated patients with coronary artery disease; type: in vivo, human; conditions: n = 10
Text: as §1, §2, §3, §4

[3] = Baseline (pretreatment), patients with coronary artery disease, mean ± SD
[4] = Week 4 of statin therapy, dose at physician discretion (Table 2), *p < 0.05
[5] = Week 6 of statin therapy, dose at physician discretion (Table 2), *p < 0.05

CC[C@H](C)C(=O)O[C@H]1C[C@@H](C)C=C2C=C[C@H](C)[C@H](CC[C@@H]3C[C@@H](O)CC(=O)O3)[C@H]21 [Lovastatin, lovastatin]
SPAN-12-MoAbs (nonactive, intact epitope of PAR-1/PAR-4 receptors) receptor expression [1, 3]: 40.6 ± 6.9 Log mean fluorescence intensity
SPAN-12-MoAbs (nonactive, intact epitope of PAR-1/PAR-4 receptors) receptor expression [1, 4]: 40.0 ± 8.1 Log mean fluorescence intensity
SPAN-12-MoAbs (nonactive, intact epitope of PAR-1/PAR-4 receptors) receptor expression [1, 5]: 31.1 ± 5.5* Log mean fluorescence intensity
WEDE15-MoAbs (a cleaved epitope of PAR-1/PAR-4 receptors) receptor expression [2, 3]: 26.8 ± 4.9 Log mean fluorescence intensity
WEDE15-MoAbs (a cleaved epitope of PAR-1/PAR-4 receptors) receptor expression [2, 4]: 18.4 ± 5.0* Log mean fluorescence intensity
WEDE15-MoAbs (a cleaved epitope of PAR-1/PAR-4 receptors) receptor expression [2, 5]: 23.0 ± 6.3 Log mean fluorescence intensity

CC(C)c1nc(N(C)S(C)(=O)=O)nc(-c2ccc(F)cc2)c1/C=C/[C@@H](O)C[C@@H](O)CC(=O)O [Rosuvastatin, rosuvastatin]
SPAN-12-MoAbs (nonactive, intact epitope of PAR-1/PAR-4 receptors) receptor expression [1, 3]: 42.2 ± 9.4 Log mean fluorescence intensity
SPAN-12-MoAbs (nonactive, intact epitope of PAR-1/PAR-4 receptors) receptor expression [1, 4]: 33.6 ± 5.9 Log mean fluorescence intensity
SPAN-12-MoAbs (nonactive, intact epitope of PAR-1/PAR-4 receptors) receptor expression [1, 5]: 25.1 ± 7.0* Log mean fluorescence intensity
WEDE15-MoAbs (a cleaved epitope of PAR-1/PAR-4 receptors) receptor expression [2, 3]: 30.1 ± 7.2 Log mean fluorescence intensity
WEDE15-MoAbs (a cleaved epitope of PAR-1/PAR-4 receptors) receptor expression [2, 4]: 17.4 ± 5.5* Log mean fluorescence intensity
WEDE15-MoAbs (a cleaved epitope of PAR-1/PAR-4 receptors) receptor expression [2, 5]: 22.6 ± 7.2* Log mean fluorescence intensity

CC(C)n1c(/C=C/C(O)CC(O)CC(=O)O)c(-c2ccc(F)cc2)c2ccccc21 (stereo not drawn) [Fluvastatin, fluvastatin]
SPAN-12-MoAbs (nonactive, intact epitope of PAR-1/PAR-4 receptors) receptor expression [1, 3]: 42.8 ± 8.2 Log mean fluorescence intensity
SPAN-12-MoAbs (nonactive, intact epitope of PAR-1/PAR-4 receptors) receptor expression [1, 4]: 37.1 ± 7.3 Log mean fluorescence intensity
SPAN-12-MoAbs (nonactive, intact epitope of PAR-1/PAR-4 receptors) receptor expression [1, 5]: 29.9 ± 6.4* Log mean fluorescence intensity
WEDE15-MoAbs (a cleaved epitope of PAR-1/PAR-4 receptors) receptor expression [2, 3]: 27.1 ± 5.9 Log mean fluorescence intensity
WEDE15-MoAbs (a cleaved epitope of PAR-1/PAR-4 receptors) receptor expression [2, 4]: 18.0 ± 5.8* Log mean fluorescence intensity
WEDE15-MoAbs (a cleaved epitope of PAR-1/PAR-4 receptors) receptor expression [2, 5]: 20.7 ± 4.1* Log mean fluorescence intensity

CC(C)c1c(C(=O)Nc2ccccc2)c(-c2ccccc2)c(-c2ccc(F)cc2)n1CC[C@@H](O)C[C@@H](O)CC(=O)O [Atorvastatin, atorvastatin]
SPAN-12-MoAbs (nonactive, intact epitope of PAR-1/PAR-4 receptors) receptor expression [1, 3]: 46.1 ± 8.3 Log mean fluorescence intensity
SPAN-12-MoAbs (nonactive, intact epitope of PAR-1/PAR-4 receptors) receptor expression [1, 4]: 39.5 ± 5.7 Log mean fluorescence intensity
SPAN-12-MoAbs (nonactive, intact epitope of PAR-1/PAR-4 receptors) receptor expression [1, 5]: 30.8 ± 4.0* Log mean fluorescence intensity
WEDE15-MoAbs (a cleaved epitope of PAR-1/PAR-4 receptors) receptor expression [2, 3]: 27.5 ± 4.9 Log mean fluorescence intensity
WEDE15-MoAbs (a cleaved epitope of PAR-1/PAR-4 receptors) receptor expression [2, 4]: 16.1 ± 5.8* Log mean fluorescence intensity
WEDE15-MoAbs (a cleaved epitope of PAR-1/PAR-4 receptors) receptor expression [2, 5]: 18.0 ± 7.4* Log mean fluorescence intensity

CCC(C)(C)C(=O)O[C@H]1C[C@@H](C)C=C2C=C[C@H](C)[C@H](CC[C@@H]3C[C@@H](O)CC(=O)O3)[C@H]21 [Simvastatin, simvastatin]
SPAN-12-MoAbs (nonactive, intact epitope of PAR-1/PAR-4 receptors) receptor expression [1, 3]: 45.4 ± 7.0 Log mean fluorescence intensity
SPAN-12-MoAbs (nonactive, intact epitope of PAR-1/PAR-4 receptors) receptor expression [1, 4]: 26.5 ± 5.8* Log mean fluorescence intensity
SPAN-12-MoAbs (nonactive, intact epitope of PAR-1/PAR-4 receptors) receptor expression [1, 5]: 24.9 ± 6.2* Log mean fluorescence intensity
WEDE15-MoAbs (a cleaved epitope of PAR-1/PAR-4 receptors) receptor expression [2, 3]: 29.0 ± 7.3 Log mean fluorescence intensity
WEDE15-MoAbs (a cleaved epitope of PAR-1/PAR-4 receptors) receptor expression [2, 4]: 16.6 ± 5.5* Log mean fluorescence intensity
WEDE15-MoAbs (a cleaved epitope of PAR-1/PAR-4 receptors) receptor expression [2, 5]: 23.4 ± 8.1 Log mean fluorescence intensity

CC[C@H](C)C(=O)O[C@H]1C[C@H](O)C=C2C=C[C@H](C)[C@H](CC[C@@H](O)C[C@@H](O)CC(=O)O)[C@H]21 [Pravastatin, pravastatin]
SPAN-12-MoAbs (nonactive, intact epitope of PAR-1/PAR-4 receptors) receptor expression [1, 3]: 50.3 ± 9.1 Log mean fluorescence intensity
SPAN-12-MoAbs (nonactive, intact epitope of PAR-1/PAR-4 receptors) receptor expression [1, 4]: 29.0 ± 6.7* Log mean fluorescence intensity
SPAN-12-MoAbs (nonactive, intact epitope of PAR-1/PAR-4 receptors) receptor expression [1, 5]: 32.6 ± 8.4* Log mean fluorescence intensity
WEDE15-MoAbs (a cleaved epitope of PAR-1/PAR-4 receptors) receptor expression [2, 3]: 28.2 ± 4.4 Log mean fluorescence intensity
WEDE15-MoAbs (a cleaved epitope of PAR-1/PAR-4 receptors) receptor expression [2, 4]: 16.9 ± 4.8* Log mean fluorescence intensity
WEDE15-MoAbs (a cleaved epitope of PAR-1/PAR-4 receptors) receptor expression [2, 5]: 20.1 ± 6.6* Log mean fluorescence intensity
